In PubChem BioAssay AID743123 (Broad Institute, 2013):
Values joined by “and” are separate entries in the source; they are usually repeats but may differ in a detail not shown here. Identical values can stand only once. Records with an inconclusive call do not appear. Active and inactive are the calls of the source.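 How the source made its calls: active means inhibition with a half-effect concentration no higher than twice the top valid dose tested; inconclusive means flat fit inhibiting 30 to 70%, or a poor fit; inactive means effect in the wrong direction, plus the rest.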

Tested on: C. neoformans, alamar blue, sorbitol counter-screen, 24 h
Assay: C. neoformans growth inhibition with sorbitol, dose response, counter-screen for C. neoformans cell wall antifungals, alamar blue, sorbitol added, dry powder (AID 743123)
Settings: not given

Cc1ccc(OCCn2c(SCCO)nc3ccccc32)c(C(C)C)c1 and Cc1ccc(C(C)C)c(OCCn2c(=S)[nH]c3ccccc32)c1 are within 1.5-fold of each other in AC50: 7.62 µM for the first, 10.1 µM for the second.

Compared with CCOc1ccc(OCCn2c(=S)[nH]c3ccccc32)cc1, Cc1ccc(OCCn2c(=S)[nH]c3ccccc32)cc1 is 2.2-fold lower in AC50: 24.1 µM for the first, 10.9 µM for the second.

Going from CCOC(=O)c1c(-c2ccc(F)cc2)csc1NC(=O)CN1CCN(CC)CC1 to CCOC(=O)c1c(-c2ccc(C(C)(C)C)cc2)csc1NC(=O)CN1CCN(CC)CC1, the AC50 falls from 36.1 µM to 14.6 µM (2.5-fold).

First: CCOC(=O)c1c(-c2ccc(-c3ccccc3)cc2)csc1NC(=O)CNCCN(C)C
Second: CCOC(=O)c1c(NC(=O)CNCCN(C)C)sc(C)c1-c1ccccc1
The AC50 of the first is 18-fold higher: 19.9 µM for the first, 1.09 µM for the second.

Fc1cccc2c1[nH]c(=S)n2CCOc1ccccc1 and S=c1[nH]c2ccccc2n1CCOc1ccccc1 are within 1.5-fold of each other in AC50: 31.9 µM for the first, 28.5 µM for the second.

CCOC(=O)c1c(NC(=O)CN2CCN(C)CC2)sc(C)c1-c1ccc(C)cc1 and CCOC(=O)c1c(-c2ccc(C(C)(C)C)cc2)csc1NC(=O)CN1CCN(C)CC1 are within 1.5-fold of each other in AC50: 16.9 µM for the first, 13.7 µM for the second.

First: COC(=O)C1=C(C)N(Cc2ccccc2)C(=S)NC1c1ccc(Br)cc1 (stereo not given)
Second: COC(=O)C1=C(C)N(Cc2ccc(Cl)cc2)C(=S)NC1c1ccc(Br)cc1 (stereo not given)
The AC50 of the first is 2.9-fold higher: 9.1 µM for the first, 3.11 µM for the second.

Compared with S=c1[nH]c2ccccc2n1CCOc1ccc(Cl)cc1, Fc1ccccc1OCCn1c(=S)[nH]c2ccccc21 is 2.5-fold higher in AC50: 14.7 µM for the first, 36.2 µM for the second.

Compared with CCOC(=O)c1c(-c2ccc(OC)cc2)csc1NC(=O)CN(C)CC(=O)N(C)C, COC(=O)C1=C(C)N(Cc2ccc(Br)cc2)C(=S)NC1c1ccc(OC)cc1 (stereo not given) is 1.7-fold higher in AC50: 13.9 µM for the first, 23.9 µM for the second.

Compared with Cc1ccc2c(c1)[nH]c(=S)n2CCOc1ccccc1, S=c1[nH]c2cccc(Cl)c2n1CCOc1ccccc1 is 2.3-fold lower in AC50: 27.1 µM for the first, 11.6 µM for the second.

First: COC(=O)C1=C(C)N(Cc2ccc(Br)cc2)C(=S)NC1c1ccc(F)cc1 (stereo not given)
Second: COC(=O)C1=C(C)N(Cc2ccc(F)cc2)C(=S)NC1c1cccc(F)c1 (stereo not given)
The AC50 of the first is 4-fold lower: 5.99 µM for the first, 24.2 µM for the second.

Cc1ccc(OCCn2cnc3ccccc32)cc1 and Cc1ccccc1OCCn1c(=S)[nH]c2ccccc21 are within 1.5-fold of each other in AC50: 7.76 µM for the first, 9.99 µM for the second.

For Cc1ccc(OCCn2c(=S)[nH]c3ccccc32)c(C(C)C)c1, the AC50 was 8.54 µM and 9.18 µM.

Tested on: not listed separately
Assay: as above
Settings: C. neoformans, alamar blue, sorbitol counter-screen, 24 h; at 35 µM (top of the series)

For CCOC(=O)c1c(-c2ccc(F)cc2)csc1NC(=O)CN1CCN(C)CC1, the activity change, negative = inhibition was -15.2% (inactive).
With Cc1cccc(OCCn2c(=S)[nH]c3cc(C(F)(F)F)ccc32)c1 the activity change, negative = inhibition was -32% (inactive).
For c1ccc(OCCn2cnc3ccccc32)cc1, the activity change, negative = inhibition was -38.4% (inactive).
For Cc1ccc(OCCn2c(C)nc3ccccc32)cc1, the activity change, negative = inhibition was -59.3% (inactive).
With O=c1[nH]c2ccccc2n1CCOc1ccccc1 the activity change, negative = inhibition was -36.6% (inactive).
